# Measured values published in US6339098B1, “2,1-benzisothiazoline 2,2-dioxides” (American Home Products Corporation, priority 1999, dated 2002).
# Target: T1, human PR (hPR-B) (Homo sapiens, UniProt P06401)
# T1 construct: expressed in transfected cells; host or cells: CV-1 cells (electroporation with pLEM-hPR-B and pGL3-2xPRE-luciferase)
# T1 sequence (P06401 1-933): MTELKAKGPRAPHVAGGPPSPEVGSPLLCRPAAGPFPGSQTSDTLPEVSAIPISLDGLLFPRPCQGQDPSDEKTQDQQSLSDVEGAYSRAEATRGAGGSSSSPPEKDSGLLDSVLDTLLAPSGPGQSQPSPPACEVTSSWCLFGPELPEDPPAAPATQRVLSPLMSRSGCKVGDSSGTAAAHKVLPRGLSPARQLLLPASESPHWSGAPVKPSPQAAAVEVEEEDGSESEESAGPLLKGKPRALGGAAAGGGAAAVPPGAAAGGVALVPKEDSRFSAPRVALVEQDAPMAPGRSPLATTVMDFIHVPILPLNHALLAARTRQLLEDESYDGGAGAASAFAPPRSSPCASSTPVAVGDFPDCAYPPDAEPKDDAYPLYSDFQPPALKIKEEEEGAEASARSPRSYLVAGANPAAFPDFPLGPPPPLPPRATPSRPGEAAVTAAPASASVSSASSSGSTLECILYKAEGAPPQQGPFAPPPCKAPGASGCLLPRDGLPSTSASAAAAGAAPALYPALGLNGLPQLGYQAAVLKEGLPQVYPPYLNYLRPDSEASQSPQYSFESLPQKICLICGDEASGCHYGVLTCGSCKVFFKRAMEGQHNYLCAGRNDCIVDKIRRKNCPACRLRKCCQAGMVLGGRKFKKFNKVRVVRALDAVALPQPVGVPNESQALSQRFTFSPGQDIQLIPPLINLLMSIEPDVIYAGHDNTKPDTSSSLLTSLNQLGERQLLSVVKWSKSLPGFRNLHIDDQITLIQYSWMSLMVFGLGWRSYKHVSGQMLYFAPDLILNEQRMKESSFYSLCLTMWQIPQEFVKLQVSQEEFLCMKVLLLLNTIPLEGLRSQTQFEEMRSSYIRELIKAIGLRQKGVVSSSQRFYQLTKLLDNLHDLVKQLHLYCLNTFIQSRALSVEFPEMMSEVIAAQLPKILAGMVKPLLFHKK
# Assay: PRE-luciferase reporter activity in CV-1 cells co-transfected with human PR and PRE-luciferase plasmids (antiprogestational activity)
# Format: cell-based
# Conditions: CV-1 cells co-transfected with hPR-B and PRE-luciferase; in the presence of 3 nM progesterone; 24 h treatment; read-out: IC50 (concentration giving half-maximal decrease in 3 nM progesterone induced PRE-luciferase activity)
# Description: The procedure used and results obtained are described in Example 2 below.
# Growth medium: DMEM (BioWhittaker) containing 10% (v/v) fetal bovine serum (heat inactivated), 0.1 mM MEM non-essential amino acids, 100 U/ml penicillin, […] streptomycin, and 2 mM GlutaMax (GIBCO, BRL).
# Experimental medium: DMEM (BioWhittaker), phenol red-free, containing 10% (v/v) charcoal-stripped fetal bovine serum (heat-inactivated), 0.1 mM MEM non-essential amino acids, 100 U/ml penicillin, […] streptomycin, and 2 mM GlutaMax (GIBCO, BRL).
# Stock CV-1 cells were maintained in growth medium. Co-transfection was done using 1.2×10^7 cells, 5 mg pLEM plasmid with hPR-B inserted at Sph1 and BamH1 sites, 10 mg pGL3 plasmid with two PREs upstream of the luciferase sequence, and 50 mg sonicated calf thymus DNA as carrier DNA in […]. Electroporation was carried out at 260 V and […] in a Biorad Gene Pulser II. After electroporation, cells were resuspended in growth medium and plated in 96-well plate at 40,000 cells/well in […]. Following overnight incubation, the medium was changed to experimental medium Cells were then treated with reference or test compounds in experimental medium. Compounds were tested for antiprogestational activity in the presence of 3 nM progesterone. […] Luciferase activity was measured using luciferase reagents from Promega. […]
smiles,measurement,value
O=S1(=O)Nc2ccc(-c3cccc(Cl)c3)cc2C12CCCCC2 [Example 1],IC50,900 nM
